Results: PubChem BioAssay (NCI)
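Step 1: Grow cells in 96-well plates. Step 2: Expose to compound for 48 hours at 5 concentrations. Step 3: Interpolate endpoints linearly; if unreached, use highest concentration. GI50 = concentration required for 50% inhibition of growth. TGI: concentration producing complete growth inhibition.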

Tests used:
Experiment in all cases: NCI-60 cell line screen, 48 h
IGROV1 ovarian = tested on: IGROV1 ovarian
HT29 colon = tested on: HT29 colon
OVCAR-3 ovarian = tested on: OVCAR-3 ovarian
RPMI-8226 leukemia = tested on: RPMI-8226 leukemia
SW-620 colon = tested on: SW-620 colon
HCT-15 colon = tested on: HCT-15 colon
OVCAR-5 ovarian = tested on: OVCAR-5 ovarian
NCI/ADR-RES ovarian = tested on: NCI/ADR-RES ovarian
MCF7 breast = tested on: MCF7 breast
HS 578T breast = tested on: HS 578T breast

SMILES | GI50 (IGROV1 ovarian) | TGI (IGROV1 ovarian) | GI50 (HT29 colon) | TGI (HT29 colon) | GI50 (OVCAR-3 ovarian) | TGI (OVCAR-3 ovarian) | GI50 (RPMI-8226 leukemia) | TGI (RPMI-8226 leukemia) | GI50 (SW-620 colon) | TGI (SW-620 colon) | GI50 (HCT-15 colon) | TGI (HCT-15 colon) | GI50 (OVCAR-5 ovarian) | TGI (OVCAR-5 ovarian) | GI50 (NCI/ADR-RES ovarian) | TGI (NCI/ADR-RES ovarian) | GI50 (MCF7 breast) | TGI (MCF7 breast) | GI50 (HS 578T breast) | TGI (HS 578T breast)
CC(C)=O.O=C([O-])C(F)(F)F.O=C([O-])C(F)(F)F.O=C([O-])C(F)(F)F.O=C([O-])C(F)(F)F.[Rh+2].[Rh+2] | > 100 µM | > 100 µM | > 100 µM | > 100 µM | > 100 µM | > 100 µM | 33.2 µM | > 100 µM | 65.2 µM | > 100 µM | > 100 µM | > 100 µM | > 100 µM | > 100 µM |  |  |  |  |  | 
O=c1cc(-c2ccccc2)oc2ccc(OC/C(=N/O)c3ccc(F)cc3)cc12 | 21.7 µM | > 50 µM | 2.1 µM | 41.6 µM | 1.67 µM | 7.2 µM | 3 µM | 14.9 µM | 2.67 µM | 32.8 µM | 2.99 µM | 14.5 µM | 16.4 µM | > 50 µM | 2.97 µM | 12.8 µM |  |  |  | 
CCO/C(CCn1[nH]c(=O)c(Cl)c(Cl)c1=O)=N\NC(=O)C(=O)NN |  | > 100 µM |  | > 100 µM |  | > 100 µM |  | > 100 µM |  | > 100 µM |  | > 100 µM |  | > 100 µM |  |  |  |  |  | 
COc1cccc(OC(=O)c2ccc(C(F)(F)F)nc2Nc2c(C)cccc2Cl)c1 | 15.1 µM | 43.3 µM | 26.4 µM | > 100 µM | 22.8 µM | 69.2 µM | 35.8 µM | > 100 µM | 46 µM | > 100 µM | 54.1 µM | > 100 µM | 3.13 µM | 21.2 µM |  |  | 15.8 µM | 81.2 µM | 24.7 µM | 94.6 µM
O=S(=O)(c1ccccc1)c1nccs1 |  | > 100 µM |  | > 100 µM |  | > 100 µM |  | > 100 µM |  | > 100 µM |  | > 100 µM |  | > 100 µM |  |  |  |  |  | 
S=c1nc(C(c2ccccc2)c2ccccc2)[nH][nH]1 |  | > 100 µM |  | > 100 µM |  | > 100 µM |  |  |  | > 100 µM |  | > 100 µM |  | > 100 µM |  |  |  |  |  | 
O=C(N/C(=C\c1c(O)ccc2ccccc12)c1nc2ccccc2[nH]1)c1ccccc1 |  | > 100 µM |  | > 100 µM |  | > 100 µM |  | > 100 µM |  | > 100 µM |  | > 100 µM |  | > 100 µM |  |  |  |  |  | 
O=C(Nc1cc(Cl)ccc1Cl)c1cc2cccc(Br)c2oc1=O |  | > 100 µM |  | > 100 µM |  | > 100 µM |  | > 100 µM |  | > 100 µM |  | > 100 µM |  |  |  |  |  |  |  | 
O=c1/c(=C/c2c(O)ccc3ccccc23)sc2nc3ccccc3n12 |  | > 100 µM |  | > 100 µM |  | > 100 µM |  |  |  | > 100 µM |  | > 100 µM |  | > 100 µM |  |  |  |  |  | 
CC1(C)OC2CC3COC(=O)C3CC2O1 (configuration not stated) |  | > 100 µM |  | > 100 µM |  | > 100 µM |  | > 100 µM |  | > 100 µM |  | > 100 µM |  | > 100 µM |  |  |  |  |  | 
CC(N)Cc1ccc(Cl)cc1 (configuration not stated) |  | > 100 µM |  | > 100 µM |  | > 100 µM |  | > 100 µM |  | > 100 µM |  | > 100 µM |  | > 100 µM |  |  |  |  |  | 
CSC(=Nc1ccccc1Cl)NC(=O)c1ccc(Br)cc1 |  | > 100 µM |  | > 100 µM |  | > 100 µM |  | > 100 µM |  | > 100 µM |  | > 100 µM |  | > 100 µM |  |  |  |  |  | 
COc1cccc2c1C(=O)c1c(O)c3c(c(O)c1C2=O)C[C@@](O)(C(C)=O)C[C@@H]3OC1CC([N+]([O-])(Cc2ccccc2)Cc2ccccc2)C(O)C(C)O1 (some centres not stated) |  | 4.82 µM |  | 3.14 µM |  | 3.28 µM |  |  |  | 2.54 µM |  | 2.76 µM |  | 3.22 µM |  |  |  |  |  | 
Cc1cc(C)nc(NS(=O)(=O)c2ccc(Nc3c4ccccc4nc4c(C(=O)Nc5ccc(S(=O)(=O)Nc6cc(C)on6)cc5)ccc(Cl)c34)cc2)n1 |  |  |  | 47.8 µM |  | 31.3 µM |  | 57.8 µM |  |  |  | > 100 µM |  | 44.6 µM |  |  |  |  |  | 
O=C(O)/C=C/c1ccc[c]([Sb](=[O])([OH])[OH])c1 | > 100 µM | > 100 µM | > 100 µM | > 100 µM | > 100 µM | > 100 µM | > 100 µM | > 100 µM | > 100 µM | > 100 µM | > 100 µM | > 100 µM | > 100 µM | > 100 µM | > 100 µM | > 100 µM |  |  | > 100 µM | > 100 µM
COC1=CC(=O)C(Br)=CC1=O |  | 31.1 µM |  | 35.6 µM |  |  |  | 50.6 µM |  | 54.9 µM |  | 47 µM |  |  |  |  |  |  |  | 
